Laboratory results reported in patent publication US20230357272A1, “OCTAHYDROPYRAZINODIAZANAPHTHYRIDINE DIONE COMPOUNDS” (MEDSHINE DISCOVERY INC., priority 2020, published 2023).
Read-outs that look alike come from different tables or passages of the source.

Columns and labels:
[1] = Pharmacokinetic study of female BALB/c nude mice (plasma and tumor); format: in vivo; details: for concentration at 1 h / concentration at 4 h / concentration at 8 h: oral, read-out: Mean drug concentration; for Kp: tumor/plasma, read-out: AUC ratio = tumor AUC0-last/plasma AUC0-last
Procedure: This experiment was a pharmacokinetic study of female BALB/c nude mice after oral administration of compound 1D. The experiment was divided into three groups, which were intragastrically administered with 1, 3 and 10 mg/kg of compound 1D, respectively. Animals in each group were divided into two batches, and plasma and tumor tissue samples were collected at different time points after administration. The collection time points of the plasma samples from each group of animals were: 0.083, 0.25, 0.5, 1, 2, 4, 6 and 8 hours, respectively, and the collection time points of tumor tissue samples were 1, 4 and 8 hours, respectively. At the corresponding sample collection time point after administration, plasma was collected, and tumor tissue was dissected and weighed. The plasma was stored at −80° C., and the tumor tissue was stored in a cryopreservation tube and quickly frozen in liquid nitrogen. Cross-collected plasma samples were used to calculate the mean concentration of the corresponding time points in each group for the calculation of PK parameters.

[2] = test system: human colon cancer CO-04-0070 subcutaneous xenograft tumor; assay: In vivo pharmacodynamic study on human colon cancer CO-04-0070 subcutaneous xenograft tumor model; design: species or system BALB/c nude mouse; details: for Tumor volume (Day 0): Day 0 (at grouping); for Tumor volume (Day 0) / Tumor volume (Day 20) / Tumor weight (Day 20): mean ± SEM, n = 8; for RTV (Day 20) / T/C (%) (Day 20) / T/Cweight / TGI (%) (Day 20) / Tumor volume (Day 20) / Tumor weight (Day 20): Day 20
Procedure: To evaluate the in vivo efficacy of the compound in the human colon cancer CO-04-0070 subcutaneous xenograft tumor BALB/c nude mouse model.
Each animal was inoculated with a CO-04-0070 FP7 tumor block with a volume of about 30 mm^3 in the right back position. When the mean tumor volume reached 151 mm^3, random grouping was used and the administration was started.
Tumor diameters were measured with vernier calipers twice a week. The calculation formula of tumor volume was: V=0.5a×b^2, wherein a and b represented the long and short diameters of the tumor, respectively.
The anti-tumor efficacy of the compounds was evaluated by TGI (%) or relative tumor proliferation rate T/C (%). Relative tumor proliferation rate T/C (%)=TRTV/CRTV×100% (TRTV: mean RTV of the treatment group; CRTV: mean RTV of the negative control group). The relative tumor volume (RTV) was calculated according to the results of tumor measurement, and the calculation formula was RTV=Vt/V0, wherein V0 was the tumor volume measured at the time of group administration (that is, D0), Vt was the tumor volume at a certain measurement, and the data of TRTV and CRTV were taken on the same day. TGI (%), reflecting the tumor growth inhibition rate.
TGI (%)=[1−(mean tumor volume at the end of administration in a treatment group−mean tumor volume at the beginning of administration in the treatment group)/(mean tumor volume at the end of treatment in vehicle control group−mean tumor volume at the beginning of treatment in vehicle control group)]×100%.
After the experiment, the tumor weight would be detected, and the percentage of T/Cweight would be calculated. Tweight and Cweight represented the tumor weight of the administration group and the vehicle control group, respectively.

[3] = female, BALB/c nude, mouse, plasma, 1 mg/kg intragastric
[4] = female, BALB/c nude, mouse, plasma, 3 mg/kg intragastric
[5] = female, BALB/c nude, mouse, plasma, 10 mg/kg intragastric
[6] = female, BALB/c nude, mouse, tumor, 1 mg/kg intragastric
[7] = female, BALB/c nude, mouse, tumor, 3 mg/kg intragastric
[8] = female, BALB/c nude, mouse, tumor, 10 mg/kg intragastric
[9] = female, BALB/c nude, mouse, po, plasma, 1 mg/kg intragastric
[10] = female, BALB/c nude, mouse, po, plasma, 3 mg/kg intragastric
[11] = female, BALB/c nude, mouse, po, plasma, 10 mg/kg intragastric
[12] = female, BALB/c nude, mouse, po, tumor, 3 mg/kg intragastric
[13] = female, BALB/c nude, mouse, po, tumor, 10 mg/kg intragastric

`C=CC(=O)N1CCN2c3c(c(=O)n(-c4c(C)ccnc4C(C)C)c4c(=O)n(-c5c(N)c(Cl)cc(Cl)c5F)c(C(F)(F)F)cc34)OCC[C@H]2C1` [Compound 1D] showed a concentration at 1 h [1, 3] of 22.5 nM, a concentration at 4 h [1, 3] of 3.58 nM and a concentration at 8 h [1, 3] of 1.22 nM. For the same compound, the concentration at 1 h [1, 4] was 157 nM, the concentration at 4 h [1, 4] was 11.5 nM and the concentration at 8 h [1, 4] was 4.13 nM. For the same compound, the concentration at 1 h [1, 5] was 285 nM, the concentration at 4 h [1, 5] was 54.8 nM and the concentration at 8 h [1, 5] was 30.6 nM. It also gave a concentration at 1 h [1, 6] of 10.4 nM, a concentration at 4 h [1, 6] of 2.04 nM and a concentration at 1 h [1, 7] of 136 nM. It also gave a concentration at 4 h [1, 7] of 9.78 nM, a concentration at 8 h [1, 7] of 2.78 nM and a concentration at 1 h [1, 8] of 203 nM. For the same compound, the concentration at 4 h [1, 8] was 37.9 nM, the concentration at 8 h [1, 8] was 20.8 nM and the AUC(0-t) [1, 9] was 0.0544 µM·h. It also gave a Tmax [1, 9] of 0.25 h, a half-life [1, 9] of 2.57 h and a Cmax ([1]; female, BALB/c nude, mouse, po, plasma, 1 mg/kg intragastric, read-out: Cmax) of 40.8 nM. It also gave an AUC(0-t) [1, 10] of 0.287 µM·h, a Tmax [1, 10] of 0.5 h and a half-life [1, 10] of 2.2 h. It also gave a Cmax ([1]; female, BALB/c nude, mouse, po, plasma, 3 mg/kg intragastric, read-out: Cmax) of 191 nM, an AUC(0-t) [1, 11] of 0.84 µM·h and a Tmax [1, 11] of 0.25 h. The half-life [1, 11] was 1.99 h, the Cmax ([1]; female, BALB/c nude, mouse, po, plasma, 10 mg/kg intragastric, read-out: Cmax) was 348 nM and the Tmax [1, 12] was 1 h. For the same compound, the half-life [1, 12] was 1.28 h, the Tmax [1, 13] was 1 h and the half-life [1, 13] was 2.19 h. The Kp ([1]; female, BALB/c nude, mouse, po, 3 mg/kg intragastric) was 0.815, the Kp ([1]; female, BALB/c nude, mouse, po, 10 mg/kg intragastric) was 0.608 and the Tlast ([1]; plasma, 1 mg/kg intragastric) was 8.00 h. It also gave a Tlast ([1]; plasma, 3 mg/kg intragastric) of 8.00 h, a Tlast ([1]; plasma, 10 mg/kg intragastric) of 8.00 h and an AUC0-last ([1]; tumor, 3 mg/kg intragastric) of 234 nmol·h/kg. For the same compound, the Cmax ([1]; tumor, 3 mg/kg intragastric) was 136 nmol/kg, the Tlast ([1]; tumor, 3 mg/kg intragastric) was 8.00 h and the AUC0-last ([1]; tumor, 10 mg/kg intragastric) was 511 nmol·h/kg. The Cmax ([1]; tumor, 10 mg/kg intragastric) was 203 nmol/kg, the Tlast ([1]; tumor, 10 mg/kg intragastric) was 8.00 h and the “Tumor volume (Day 0)” value ([2]; 3 mg/kg PO QD × 3 weeks) was 151 mm^3. The “RTV (Day 20)” value ([2]; 3 mg/kg PO QD × 3 weeks) was 5.32, the “T/C (%) (Day 20)” value ([2]; 3 mg/kg PO QD × 3 weeks) was 58.0% and the T/Cweight ([2]; 3 mg/kg PO QD × 3 weeks) was 61.6%. The “TGI (%) (Day 20)” value ([2]; 3 mg/kg PO QD × 3 weeks) was 45.4%, the “Tumor volume (Day 20)” value ([2]; 3 mg/kg PO QD × 3 weeks) was 788 mm^3 and the “Tumor weight (Day 20)” value ([2]; 3 mg/kg PO QD × 3 weeks) was 0.832 ± 0.102 g. For the same compound, the “Tumor volume (Day 0)” value ([2]; 10 mg/kg PO QD × 3 weeks) was 151 mm^3, the “RTV (Day 20)” value ([2]; 10 mg/kg PO QD × 3 weeks) was 2.43 and the “T/C (%) (Day 20)” value ([2]; 10 mg/kg PO QD × 3 weeks) was 26.5%. The T/Cweight ([2]; 10 mg/kg PO QD × 3 weeks) was 30.1%, the “TGI (%) (Day 20)” value ([2]; 10 mg/kg PO QD × 3 weeks) was 80.5% and the “Tumor volume (Day 20)” value ([2]; 10 mg/kg PO QD × 3 weeks) was 379 mm^3. For the same compound, the “Tumor weight (Day 20)” value ([2]; 10 mg/kg PO QD × 3 weeks) was 0.406 ± 0.095 g, the “Tumor volume (Day 0)” value ([2]; 30 mg/kg PO QD × 3 weeks) was 151 mm^3 and the “RTV (Day 20)” value ([2]; 30 mg/kg PO QD × 3 weeks) was 1.02. The “T/C (%) (Day 20)” value ([2]; 30 mg/kg PO QD × 3 weeks) was 11.1%, the T/Cweight ([2]; 30 mg/kg PO QD × 3 weeks) was 12.0% and the “TGI (%) (Day 20)” value ([2]; 30 mg/kg PO QD × 3 weeks) was 99.9%. For the same compound, the “Tumor volume (Day 20)” value ([2]; 30 mg/kg PO QD × 3 weeks) was 152 mm^3 and the “Tumor weight (Day 20)” value ([2]; 30 mg/kg PO QD × 3 weeks) was 0.162 ± 0.023 g.
